Test results reported in patent US20230181027A1, “METHODS AND MATERIALS FOR TREATING NEUROMYELITIS OPTICA SPECTRUM DISEASES” (Mayo Foundation for Medical Education and Research, priority 2019, published 2023).

What was measured:
[1] = test system: astrocyte complement C3; assay: Complement C3 and GFAP double staining of astrocytes in L4 spinal cord; format: in vivo, mice; conditions: minocycline co-infusion with NMO-IgG
Source text: Astrocytes exposed in culture to NMO-IgG increase their production and secretion of all complement components, except C1q, which is made by activated microglia (see, Howe et al., Glia 62:692-708 (2014)). […] In contrast, C3 expression was principally restricted to the lumen of blood vessels following control-IgG exposure. The percentage of C3^+ astrocytes in spinal cord of mice receiving NMO-IgG was ~5-fold higher than that of control-IgG recipients (FIG. 10A). C3 upregulation in astrocytes is independent of microglia, as a similar C3 increase was found after microglia ablation (FIG. 11).
(§1) Mice were deeply anaesthetized with isoflurane (5% in O2) and perfused transcardially with 20 mL PBS followed by 20 mL of cold 4% paraformaldehyde (PFA) in PBS. The spinal cord was removed and post-fixed with 4% PFA for 6 hours at 4° C. Samples were then transferred to 30% sucrose in PBS overnight. Sample sections (15 mm in thickness) were prepared on gelatin-coated glass slide with a cryostat (Leica). […] Cell counting and fluorescent signal intensity was quantified using ImageJ software (National Institutes of Health, Bethesda, MD).

[2] = test system: murine model of NMO; assay: Rotarod test (latency to fall) in murine model of NMO with intrathecal NMO-IgG infusion; format: in vivo, mice
Source text: To investigate the cellular and molecular mechanisms underlying NMO pathology, a murine model was developed that utilizes IgG purified from NMO patient serum (NMO-IgG) or monoclonal AQP4-specific IgG. IgG collected from healthy individuals, or from healthy control subjects (control-IgG), or a control monoclonal IgG of irrelevant specificity was used in each experiment. NMO-IgG and control-IgG was purified by protein G adsorption (FIG. 1). An osmotic mini-pump delivery system loaded with either NMO-IgG, AQP4-IgG or control-IgG was placed subcutaneously and IgG was infused continuously into the spinal subarachnoid space via intrathecal catheter for 5 to 7 days (FIG. 2A). […] Gait analysis was also performed using ink tracking as described elsewhere (see, e.g., Zhang et al., J. Autoimmun. 53:67-77 (2014)). […] After 5 days of either […], 3 µg/µL, or 1 µg/µL NMO-IgG treatment, stride lengths decreased from an average of 5.7 cm to 2.6, 3.8, and 5.0 cm respectively (FIGS. 2C and 2D).
A 3.5 cm polyurethane-silicone catheter (Alzet, CA) was inserted at the condylar canal to accesses the subarachnoid space at the cisterna magna and extended to lumbar level of spinal cord. Five days later an osmotic mini-pump delivery system, containing either NMO-IgG or control-IgG, was placed subcutaneously over the right shoulder. IgG was delivered continuously for 5-7 days (1-10 µg/day) (FIG. 2A).
The rotarod tests were performed using a five-lane Rotarod apparatus (Med Assocaites Inc). The rotarod speed started from 4 rounds per minute and uniformly accelerated to 40 rounds per minute over 5 minutes. Each mouse was tested for 3 times with 15 minute intervals. For gait analysis, mouse fore and hind limbs were covered by different color ink and allowed to walk freely across a narrow strip of paper. Stride length of hind limbs was reported as the mean of 5 sequential steps.
Minocycline hydrochloride was dissolved in PBS with 1% DMSO at 30 µg/µL and mixed with 20 µg/µL NMO-IgG to make a mixture of 15 µg/µL minocycline and 10 µg/µL NMO-IgG. […]

[3] = test system: microglia-astrocyte interaction; assay: Microglia-astrocyte interaction (Iba1/GFAP or CX3CR1-GFP/GFAP overlap) in L4 spinal cord; format: in vivo, mice; conditions: intrathecal, 150 µg/day, with NMO-IgG infusion
Source text: However, the question remains as to what cellular and molecular mechanisms underlie microglial function in NMO. […] Under control conditions, GFAP^+ astrocytes rarely overlap with Iba1^+ microglia. However, spatial overlapping was abundant after NMO-IgG exposure. […] Specifically, on average only 17% of microglia interact with astrocytes under control conditions while 65% of microglia overlap with astrocytes after NMO-IgG infusion.
as §1

[4] = test system: microglia; assay: Iba1 immunostaining of spinal cord microglia (activation or depletion); format: in vivo, mice
Source text: To examine microglial activation in our murine model of NMO, genetic labeling of microglia (CX3CR1^GFP/+) and immunostaining for the microglial marker Iba1 were used. […] In addition, NMO-IgG induced striking morphological transition of microglia, from “resting” ramified to “activated” bushy phenotype in time-dependent manner (FIG. 4C).
Microglial activation after NMO-IgG infusion indicates a potential role for microglia in NMO pathogenesis. To test this idea, microglia ablation approaches were utilized to directly examine the requirement of microglia in NMO-induced motor deficits. […].
TM (Sigma) was administered as a solution in corn oil (Sigma) to mice over 4 weeks of age via i.p. injection. Animals received four doses of TM (150 mg kg^-1, 20 mg mL^-1 in corn oil) in 48 hour intervals. […] Mice administered with DT only (without TM) were used as control for all ablation experiments.
as §1, with “overnight.” for “overnight. Sample sections (15 mm in thickness) were prepared on gelatin-coated glass slide with a cryostat (Leica).”
Quantification of Iba1 cells was done with ImageJ software (NIH Image). […]

[5] = test system: microglia; assay: In situ microglial process chemoattraction assay (C3a-containing pipettes); format: cell-based, mice
Procedure: The cleavage of the complement component C3 produces two signaling molecules, C3a and C3b.
Hippocampal tissue slices ([…] thick) were prepared from P14-21 mice and incubated in imaging media. Microglia were visualized by GFP. For each image in the time-series, 15 z-steps spaced […] apart were collected per image ([…] total depth). Images were taken at 5 minute intervals for up to 1 hour on Scientifica 2-photon microscope with an X20 lens. Image processing and analysis was performed using NIH Image J software.

Molecule: CN(C)c1ccc(O)c2c1C[C@H]1C[C@H]3[C@H](N(C)C)C(O)=C(C(N)=O)C(=O)[C@@]3(O)C(O)=C1C2=O [minocycline]
- effect on NMO-IgG upregulation of astrocyte complement C3 [1]: not altered
- effect on NMO-IgG induced motor dysfunction in rotarod test ([2]; intrathecal, 150 µg/day, co-infused with NMO-IgG): prevented the NMO-IgG induced motor dysfunction
- effect on motor impairment when given after onset ([2]; systemic injection after 2 days of NMO-IgG infusion): reversed the motor impairment
- effect on microglia-astrocyte interaction [3]: reduced microglia-astrocyte interaction

Molecule: FC(F)(F)c1ccc(CNc2ccc(Cc3c[nH]c4ncc(Cl)cc34)cn2)cn1 [PLX3397, Pexidartinib]
- motor function after NMO-IgG infusion (rotarod) versus control chow-treated group ([2]; PLX3397 chow started 7 days before NMO-IgG infusion): significantly better
- depletion of microglia in the L4 spinal cord (Iba1+ cell density) ([4]; PLX3397 chow, day 5 after NMO-IgG infusion, versus control chow): eliminated most of the microglia

Molecule: diphtheria toxin
- depletion of spinal microglia ([4]; CX3CR1CreER/+:R26iDTR/+ mice after tamoxifen, 1 to 3 days after DT 50 µg/Kg i.p.): mostly depleted

Molecule: C3a: signaling molecule produced by cleavage of complement component C3
- time to induce microglial process chemotaxis [5]: ≤ 30 min
